Reference: BigSolDB 2.1

Compound `CC1=CC(=O)C(C(C)C)=CC1=O` has a solubility (mole fraction) (in DMSO, 298.2 K) of 0.0278, a solubility (mole fraction) (in DMSO, 303.2 K) of 0.0309 and a solubility (mole fraction) (in DMSO, 308.2 K) of 0.0358. It also gave a solubility (mole fraction) (in DMSO, 313.2 K) of 0.0402, a solubility (mole fraction) (in DMSO, 318.2 K) of 0.045 and a solubility (mole fraction) (in PEG-400, 298.2 K) of 0.0352. It also gave a solubility (mole fraction) (in PEG-400, 303.2 K) of 0.042, a solubility (mole fraction) (in PEG-400, 308.2 K) of 0.0508 and a solubility (mole fraction) (in PEG-400, 313.2 K) of 0.0617. It also gave a solubility (mole fraction) (in PEG-400, 318.2 K) of 0.0744, a solubility (mole fraction) (in ethanol, 298.2 K) of 0.0179 and a solubility (mole fraction) (in ethanol, 303.2 K) of 0.0206. The solubility (mole fraction) (in ethanol, 308.2 K) was 0.0238, the solubility (mole fraction) (in ethanol, 313.2 K) was 0.0278 and the solubility (mole fraction) (in ethanol, 318.2 K) was 0.0326. It also gave a solubility (mole fraction) (in ethyl acetate, 298.2 K) of 0.0312, a solubility (mole fraction) (in ethyl acetate, 303.2 K) of 0.0347 and a solubility (mole fraction) (in ethyl acetate, 308.2 K) of 0.0387. It also gave a solubility (mole fraction) (in ethyl acetate, 313.2 K) of 0.0431, a solubility (mole fraction) (in ethyl acetate, 318.2 K) of 0.0485 and a solubility (mole fraction) (in isopropanol, 298.2 K) of 0.0451. It also gave a solubility (mole fraction) (in isopropanol, 303.2 K) of 0.0514, a solubility (mole fraction) (in isopropanol, 308.2 K) of 0.0579 and a solubility (mole fraction) (in isopropanol, 313.2 K) of 0.0663. The solubility (mole fraction) (in isopropanol, 318.2 K) was 0.0758, the solubility (mole fraction) (in methanol, 298.2 K) was 0.01 and the solubility (mole fraction) (in methanol, 303.2 K) was 0.0116. For the same compound, the solubility (mole fraction) (in methanol, 308.2 K) was 0.0137, the solubility (mole fraction) (in methanol, 313.2 K) was 0.0157 and the solubility (mole fraction) (in methanol, 318.2 K) was 0.0182. For the same compound, the solubility (mole fraction) (in n-butanol, 298.2 K) was 0.0594, the solubility (mole fraction) (in n-butanol, 303.2 K) was 0.0658 and the solubility (mole fraction) (in n-butanol, 308.2 K) was 0.0744. The solubility (mole fraction) (in n-butanol, 313.2 K) was 0.082, the solubility (mole fraction) (in n-butanol, 318.2 K) was 0.0933 and the solubility (mole fraction) (in propylene glycol, 298.2 K) was 0.00553. For the same compound, the solubility (mole fraction) (in propylene glycol, 303.2 K) was 0.0069, the solubility (mole fraction) (in propylene glycol, 308.2 K) was 0.00891 and the solubility (mole fraction) (in propylene glycol, 313.2 K) was 0.0116. It also gave a solubility (mole fraction) (in propylene glycol, 318.2 K) of 0.0146, a solubility (mole fraction) (in sec-butanol, 298.2 K) of 0.0614 and a solubility (mole fraction) (in sec-butanol, 303.2 K) of 0.07. The solubility (mole fraction) (in sec-butanol, 308.2 K) was 0.0774, the solubility (mole fraction) (in sec-butanol, 313.2 K) was 0.0865 and the solubility (mole fraction) (in sec-butanol, 318.2 K) was 0.0973. It also gave a solubility (mole fraction) (in transcutol, 298.2 K) of 0.0664, a solubility (mole fraction) (in transcutol, 303.2 K) of 0.0755 and a solubility (mole fraction) (in transcutol, 308.2 K) of 0.0838. For the same compound, the solubility (mole fraction) (in transcutol, 313.2 K) was 0.0927, the solubility (mole fraction) (in transcutol, 318.2 K) was 0.103 and the solubility (mole fraction) (in water, 298.2 K) was 8.27e-05. For the same compound, the solubility (mole fraction) (in water, 303.2 K) was 9.39e-05, the solubility (mole fraction) (in water, 308.2 K) was 0.000108 and the solubility (mole fraction) (in water, 313.2 K) was 0.000131. For the same compound, the solubility (mole fraction) (in water, 318.2 K) was 0.000152.
